Source: patent US20240041042A1, “1-(PYRIDYL)-5-AZINYLPYRAZOLE DERIVATIVES, AND THEIR USE FOR CONTROL OF UNDESIRED PLANT GROWTH” (Bayer Aktiengesellschaft, priority 2020, published 2024)
Read-outs that look alike come from different tables or passages of the source.

Tests used:
Assay type in all cases: in vivo
[1] = tested on: Digitaria sanguinalis (DIGSA); assay: Post-emergence herbicidal action against DIGSA; conditions: visual rating about 3 weeks after treatment
Summary of the method: (§1)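 Greenhouse plants sprayed at the one-leaf stage, 2–3 weeks after sowing, with WP or EC formulations plus 0.5% additive at 600 l/ha water. Activity rated visually after about 3 weeks versus untreated controls (100% = dead, 0% = like control), at 320 g/ha or lower.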

[2] = tested on: Pharbitis purpurea (PHBPU); assay: Pre-emergence herbicidal action against PHBPU; conditions: dosage 320 g/ha
Summary of the method: (§2)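 Dosages of 320 g/ha or less; pre-emergence; WP or EC in aqueous spray, 0.5% additive, 600 l/ha; greenhouse; visual % effect after ~3 wk relative to control pots.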

[3] = tested on: Avena fatua (AVEFA); assay: Pre-emergence herbicidal action against AVEFA; conditions: 320 g/ha, visual scoring after about 3 weeks vs untreated controls
Summary of the method: as §2

[4] = tested on: Verconica persica (VERPE); assay: Post-emergence herbicidal action against VERPE
Summary of the method: as §1

[5] = tested on: Oryza sativa (ORYSA); conditions: crop plant compatibility
Summary of the method: (§3)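 Greenhouse crops in sandy loam sprayed post-emergence at the one-leaf stage, 2–3 weeks after sowing, with WP or EC formulations in water plus 0.5% additive at 600 l/ha. Damage rated visually about 3 weeks later versus untreated controls (0% = like control, 100% = dead); suffixes a–c denote different doses.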

[6] = tested on: Zea mays (ZEAMX)
Summary of the method: as §3

[7] = tested on: Alopecurus myosuroides (ALOMY); assay: Pre-emergence herbicidal action against ALOMY; conditions: scored visually after about 3 weeks, 100% = plants have died
Summary of the method: as §2

[8] = tested on: Matricaria inodora (MATIN); assay: Pre-emergence herbicidal action against MATIN
Summary of the method: as §2

[9] = tested on: Amaranthus retroflexus (AMARE); assay: Post-emergence herbicidal action against AMARE
Summary of the method: as §1

[10] = tested on: Polygonum convolvulus (POLCO); assay: Pre-emergence herbicidal action against POLCO
Summary of the method: as §2

[11] = tested on: Lolium rigidum (LOLRI); assay: Pre-emergence herbicidal action against LOLRI
Summary of the method: as §2

[12] = tested on: Viola tricolor (VIOTR); assay: Pre-emergence herbicidal action against VIOTR
Summary of the method: as §2

[13] = tested on: Verconica persica (VERPE); assay: Pre-emergence herbicidal action against VERPE
Summary of the method: as §2

[14] = tested on: Setaria viridis (SETVI); assay: Pre-emergence herbicidal action against SETVI
Summary of the method: as §2

[15] = tested on: Alopecurus myosuroides (ALOMY); assay: Post-emergence herbicidal action against ALOMY; conditions: visual rating about 3 weeks after treatment vs untreated controls (100% = plants have died, 0% = like control plants)
Summary of the method: as §1

[16] = tested on: Abutilon theophrasti (ABUTH); assay: Post-emergence herbicidal action against ABUTH; conditions: 80 g/ha, visual rating about 3 weeks after treatment vs untreated controls (100% = plants have died, 0% = like control plants)
Summary of the method: as §1

[17] = tested on: Echinochloa crus-galli (ECHCG); assay: Pre-emergence herbicidal action against ECHCG
Summary of the method: as §2

[18] = tested on: Amaranthus retroflexus (AMARE); assay: Pre-emergence herbicidal action against AMARE; conditions: visual scoring after about 3 weeks vs untreated controls
Summary of the method: as §2

[19] = tested on: Pharbitis purpurea (PHBPU); assay: Post-emergence herbicidal action against PHBPU
Summary of the method: as §1

[20] = tested on: Digitaria sanguinalis (DIGSA); assay: Pre-emergence herbicidal action against DIGSA
Excerpt: Seeds of monocotyledonous and dicotyledonous weed plants and crop plants are placed in plastic or organic planting pots and covered with soil. The compounds of the invention, formulated in the form of wettable powders (WP) or as emulsion concentrates (EC), are then applied to the surface of the covering soil as aqueous suspension or emulsion with addition of 0.5% additive at a water application rate equivalent to 600 l/ha. After the treatment, the pots are placed in a greenhouse and kept under good growth conditions for the trial plants. After about 3 weeks, the effect of the preparations is scored visually in comparison with untreated controls as percentages. For example, 100% activity=the plants have died, 0% activity=like control plants.
Tables A1 to A13 below show the effects of selected compounds of the general formula (I) on various harmful plants and at an application rate corresponding to 320 g/ha or lower, which were obtained by the experimental procedure mentioned above. The appendices “a”, “b” and “c” give differentiation by dosage used with otherwise the same harmful plants tested.

[21] = tested on: Viola tricolor (VIOTR); assay: Post-emergence herbicidal action against VIOTR
Summary of the method: as §1

[22] = tested on: Polygonum convolvulus (POLCO); assay: Post-emergence herbicidal action against POLCO
Summary of the method: as §1

[23] = tested on: Avena fatua (AVEFA); assay: Post-emergence herbicidal action against AVEFA; conditions: visual rating about 3 weeks after treatment
Summary of the method: as §1

[24] = tested on: Echinochloa crus-galli (ECHCG); assay: Post-emergence herbicidal action against ECHCG
Summary of the method: as §1

[25] = tested on: Setaria viridis (SETVI); assay: Post-emergence herbicidal action against SETVI
Summary of the method: as §1

[26] = tested on: Lolium rigidum (LOLRI); assay: Post-emergence herbicidal action against LOLRI
Summary of the method: as §1

[27] = 80 g/ha, effect in comparison to untreated controls
[28] = 80 g/ha, visual rating about 3 weeks after treatment vs untreated controls (100% = plants have died, 0% = like control plants)
[29] = 80 g/ha, visual scoring after about 3 weeks vs untreated controls

Row | Structure (SMILES) | Post-emergence action against DIGSA in % ([1]; 80 g/ha) | Pre-emergence action against PHBPU in % [2] | Pre-emergence action against AVEFA in % [3] | Post-emergence action against VERPE in % ([4]; dosage 80 g/ha) | Pre-emergence action against ALOMY ([7]; 80 g/ha) | Pre-emergence action against ALOMY ([7]; 320 g/ha) | Pre-emergence action against MATIN in % ([8]; dosage 320 g/ha) | Post-emergence action against AMARE in % [9, 28] | Pre-emergence action against POLCO in % ([10]; dosage 80 g/ha) | Pre-emergence action against POLCO in % ([10]; dosage 320 g/ha) | Pre-emergence action against LOLRI in % ([11]; dosage 320 g/ha) | Pre-emergence action against VIOTR in % ([12]; 320 g/ha, Viola tricolor) | Pre-emergence action against VIOTR in % ([12]; dosage 80 g/ha) | Pre-emergence action against SETVI in % ([14]; dosage 320 g/ha) | Pre-emergence action against ECHCG in % ([17]; dosage 320 g/ha) | Pre-emergence action against AMARE in % ([18]; 320 g/ha) | Post-emergence action against PHBPU in % ([19]; dosage 80 g/ha) | Pre-emergence action against DIGSA in % [20, 29] | Pre-emergence action against DIGSA in % ([20]; dosage 320 g/ha) | Post-emergence action against POLCO in % ([22]; dosage 80 g/ha) | also measured
1 | CCOC(=O)COc1nn(-c2ncccc2F)c(-c2ccc(F)nc2)c1C(F)(F)F [Example I-56] | 90% | 90% | 100% | 80% | 100% | 100% | 100% | 80% | 80% | 90% | 100% | 100% | 100% | 100% | 100% | 100% | 80% | 100% | 100% | 80% | Post-emergence action against ORYSA in % ([5]; 20 g/ha, effect vs untreated controls): 0%; Post-emergence action against ORYSA in % [5, 27]: 0%; Post-emergence action against ZEAMX in % (crop plant compatibility) ([6]; 20 g/ha, ZEAMX, effect in comparison to untreated controls): 0%; Post-emergence action against ZEAMX in % ([6]; crop plant compatibility, 80 g/ha, effect vs untreated controls): 0%; Pre-emergence action against LOLRI in % ([11]; dosage 80 g/ha): 100%; Pre-emergence action against VERPE in % ([13]; dosage 320 g/ha): 100%; Post-emergence action against ALOMY in % ([15]; 80 g/ha): 90%; Post-emergence action against ABUTH in % [16]: 80%; Pre-emergence action against AMARE in % ([18]; 80 g/ha): 100%; Post-emergence action against VIOTR in % ([21]; 80 g/ha): 80%; Post-emergence action against AVEFA in % ([23]; 80 g/ha): 80%
2 | COCCOCCOC(=O)COc1nn(-c2ncccc2F)c(-c2ccc(F)nc2)c1Br [Example I-37] | 90% | 90% | 90% | 80% | 100% | 100% | 100% | 90% | 80% | 90% | 100% | 100% | 100% | 100% | 100% | 100% | 80% | 100% | 100% | 80% | Post-emergence action against ECHCG in % ([24]; dosage 80 g/ha): 80%; Pre-emergence action against LOLRI in % ([11]; dosage 80 g/ha): 80%; Pre-emergence action against VERPE in % ([13]; dosage 80 g/ha): 80%; Pre-emergence action against VERPE in % ([13]; dosage 320 g/ha): 100%; Pre-emergence action against SETVI in % ([14]; dosage 80 g/ha): 100%; Post-emergence action against SETVI in % ([25]; dosage 80 g/ha): 80%; Post-emergence action against ALOMY in % ([15]; 80 g/ha): 90%; Post-emergence action against ABUTH in % [16]: 80%; Pre-emergence action against AMARE in % ([18]; 80 g/ha): 100%
3 | C=C(COC(=O)[C@@H](C)Oc1nn(-c2ccccn2)c(-c2ccc(F)nc2)c1Cl)C(=O)OC [Example I-322] | 80% | 90% | 90% | 80% | 80% | 100% | 80% | 80% | 80% | 90% | 100% | 100% | 80% | 100% | 100% | 100% | 80% | 100% | 100% | 80% | Post-emergence action against DIGSA in % ([1]; 320 g/ha): 80%; Post-emergence action against VERPE in % ([4]; 320 g/ha, VERPE): 80%; Post-emergence action against ORYSA in % [5, 27]: 10%; Post-emergence action against ECHCG in % ([24]; dosage 320 g/ha): 80%; Post-emergence action against AMARE in % ([9]; 320 g/ha, visual rating about 3 weeks after treatment): 80%; Pre-emergence action against LOLRI in % ([11]; dosage 80 g/ha): 90%; Pre-emergence action against SETVI in % ([14]; dosage 80 g/ha): 90%; Post-emergence action against SETVI in % ([25]; dosage 80 g/ha): 80%; Post-emergence action against SETVI in % ([25]; dosage 320 g/ha): 80%; Post-emergence action against ALOMY in % ([15]; 320 g/ha): 80%; Pre-emergence action against ECHCG in % ([17]; dosage 80 g/ha): 80%; Post-emergence action against PHBPU in % ([19]; dosage 320 g/ha): 80%; Post-emergence action against VIOTR in % ([21]; 80 g/ha): 80%; Post-emergence action against VIOTR in % ([21]; 320 g/ha): 80%; Post-emergence action against LOLRI in % ([26]; dosage 80 g/ha): 80%; Post-emergence action against LOLRI in % ([26]; dosage 320 g/ha): 80%; Post-emergence action against POLCO in % ([22]; dosage 320 g/ha): 80%; Post-emergence action against AVEFA in % ([23]; 80 g/ha): 80%; Post-emergence action against AVEFA in % ([23]; 320 g/ha): 80%
4 | CCOC(=O)COc1nn(-c2ncccc2F)c(-c2ccc(F)nc2)c1Cl [Example I-38] | 90% | 90% | 100% | 80% | 100% | 100% | 100% | – | 90% | 100% | 100% | 100% | 100% | 100% | 100% | 100% | 90% | 100% | 100% | 80% | Post-emergence action against ECHCG in % ([24]; dosage 80 g/ha): 90%; Pre-emergence action against MATIN in % ([8]; dosage 80 g/ha): 100%; Pre-emergence action against VERPE in % ([13]; dosage 320 g/ha): 100%; Pre-emergence action against SETVI in % ([14]; dosage 80 g/ha): 100%; Post-emergence action against SETVI in % ([25]; dosage 80 g/ha): 80%; Post-emergence action against ALOMY in % ([15]; 80 g/ha): 100%; Post-emergence action against ABUTH in % [16]: 80%; Pre-emergence action against AMARE in % ([18]; 80 g/ha): 100%; Post-emergence action against VIOTR in % ([21]; 80 g/ha): 80%
